Molecules are shown by their SMILES.

Holding throughout (test): Tyrosine kinase inhibition assay
What all share (format): biochemical
What all share (conditions): for inhibition at 1 µM: single concentration 1.0 μM, read-out: percent inhibition; for IC50: read-out: IC50 of compound

The target of one assay is MET (cMet) (Homo sapiens, UniProt P08581). Here is the method: (§1) Tyrosine kinase inhibition assays were performed at ThermoFisher Life Technologies (Madison, WI, USA) using standard protocols (SelectScreen Biochemical Profiling Service, Thermo Fisher Scientific). ATP concentrations used were at the apparent Km. Test compounds were screened in 1% dimethylsulffoxide (DMSO) (final concentration) in the well. For 10-point titrations, 3-fold serial dilutions were conducted from the starting concentration of […]. All Peptide/Kinase Mixtures were diluted to a 2× working concentration in the appropriate Kinase Buffer. All ATP Solutions were diluted to a 4× working concentration in Kinase Buffer (50 mM HEPES pH 7.5, 0.01% BRIJ-35, 10 mM MgCl2, 1 mM EGTA). The apparent ATP Km was previously determined using a Z′-LYTE assay. The Development Reagent was diluted in Development Buffer.
Chain of MET (cMet) (P08581 25-1390): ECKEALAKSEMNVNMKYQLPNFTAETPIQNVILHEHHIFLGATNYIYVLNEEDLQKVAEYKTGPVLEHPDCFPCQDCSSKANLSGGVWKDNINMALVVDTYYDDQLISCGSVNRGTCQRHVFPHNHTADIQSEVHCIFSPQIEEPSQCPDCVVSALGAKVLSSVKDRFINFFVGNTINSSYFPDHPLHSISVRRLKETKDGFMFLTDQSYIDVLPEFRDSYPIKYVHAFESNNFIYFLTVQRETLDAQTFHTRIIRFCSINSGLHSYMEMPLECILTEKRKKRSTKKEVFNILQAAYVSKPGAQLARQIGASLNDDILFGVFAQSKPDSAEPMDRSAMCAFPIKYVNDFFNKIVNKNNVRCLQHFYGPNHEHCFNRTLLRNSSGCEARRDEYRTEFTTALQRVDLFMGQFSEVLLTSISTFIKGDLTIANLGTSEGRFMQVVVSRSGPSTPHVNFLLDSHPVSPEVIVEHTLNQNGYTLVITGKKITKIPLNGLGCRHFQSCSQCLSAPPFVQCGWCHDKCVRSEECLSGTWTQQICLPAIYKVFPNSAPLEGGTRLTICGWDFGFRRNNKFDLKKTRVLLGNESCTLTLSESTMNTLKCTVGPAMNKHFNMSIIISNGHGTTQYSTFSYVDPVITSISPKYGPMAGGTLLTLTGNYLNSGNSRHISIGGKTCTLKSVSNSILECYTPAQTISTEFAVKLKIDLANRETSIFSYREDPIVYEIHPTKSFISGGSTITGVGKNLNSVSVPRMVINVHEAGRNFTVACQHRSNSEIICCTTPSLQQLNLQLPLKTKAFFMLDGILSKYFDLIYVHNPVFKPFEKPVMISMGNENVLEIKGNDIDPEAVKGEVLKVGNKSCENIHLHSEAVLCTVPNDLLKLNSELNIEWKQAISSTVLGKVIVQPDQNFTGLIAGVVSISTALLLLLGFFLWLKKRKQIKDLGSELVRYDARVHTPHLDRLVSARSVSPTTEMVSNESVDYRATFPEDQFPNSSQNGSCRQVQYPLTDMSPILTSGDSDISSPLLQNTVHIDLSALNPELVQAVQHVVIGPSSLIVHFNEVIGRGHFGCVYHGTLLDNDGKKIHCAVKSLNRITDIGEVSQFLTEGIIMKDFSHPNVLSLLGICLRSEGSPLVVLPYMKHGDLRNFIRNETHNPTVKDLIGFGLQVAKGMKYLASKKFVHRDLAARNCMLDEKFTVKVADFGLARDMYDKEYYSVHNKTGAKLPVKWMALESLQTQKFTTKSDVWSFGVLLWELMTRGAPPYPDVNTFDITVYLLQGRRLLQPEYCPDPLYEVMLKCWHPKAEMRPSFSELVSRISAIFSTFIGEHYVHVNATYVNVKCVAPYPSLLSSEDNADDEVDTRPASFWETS
(§2) The inhibition activities of compounds were determined in biochemical assays using single concentration (1.0 μM) measurements. The results were provided as percent inhibition values.

Another assay deals with T1, MERTK (cMER) (Homo sapiens, UniProt Q12866).
T1 sequence (Q12866 21-999): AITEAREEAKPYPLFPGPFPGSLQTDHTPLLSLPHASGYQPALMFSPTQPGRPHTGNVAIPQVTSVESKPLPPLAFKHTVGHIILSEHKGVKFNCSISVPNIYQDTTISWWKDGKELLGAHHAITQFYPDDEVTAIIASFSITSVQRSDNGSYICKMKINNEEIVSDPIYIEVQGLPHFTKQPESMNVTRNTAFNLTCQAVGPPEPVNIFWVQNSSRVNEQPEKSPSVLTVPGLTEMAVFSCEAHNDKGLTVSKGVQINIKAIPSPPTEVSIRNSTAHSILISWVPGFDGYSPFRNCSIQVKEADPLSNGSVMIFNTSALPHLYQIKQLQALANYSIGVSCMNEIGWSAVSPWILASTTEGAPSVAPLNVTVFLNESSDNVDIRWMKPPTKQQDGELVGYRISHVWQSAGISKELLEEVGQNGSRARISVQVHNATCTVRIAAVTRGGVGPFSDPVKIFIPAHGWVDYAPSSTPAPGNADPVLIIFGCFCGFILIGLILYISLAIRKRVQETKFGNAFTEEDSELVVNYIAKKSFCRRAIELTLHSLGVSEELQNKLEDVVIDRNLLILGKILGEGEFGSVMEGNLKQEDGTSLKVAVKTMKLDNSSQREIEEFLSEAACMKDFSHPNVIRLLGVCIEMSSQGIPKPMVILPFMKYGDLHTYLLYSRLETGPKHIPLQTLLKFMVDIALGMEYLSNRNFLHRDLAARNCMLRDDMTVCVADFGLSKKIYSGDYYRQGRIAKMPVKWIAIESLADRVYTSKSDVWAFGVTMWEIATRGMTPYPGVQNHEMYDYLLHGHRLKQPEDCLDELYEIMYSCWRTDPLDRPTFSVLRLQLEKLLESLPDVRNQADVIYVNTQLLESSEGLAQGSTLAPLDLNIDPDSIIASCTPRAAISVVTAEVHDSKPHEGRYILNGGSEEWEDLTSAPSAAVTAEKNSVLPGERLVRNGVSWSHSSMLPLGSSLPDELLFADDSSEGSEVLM
The procedure: as §1, §2

The target of a further assay is KDR (VEGFR2) (Homo sapiens, UniProt P35968). The procedure:
as §1, §2

The target of another assay is T2, AXL (Homo sapiens, UniProt P30530).
T2 sequence (P30530 26-894): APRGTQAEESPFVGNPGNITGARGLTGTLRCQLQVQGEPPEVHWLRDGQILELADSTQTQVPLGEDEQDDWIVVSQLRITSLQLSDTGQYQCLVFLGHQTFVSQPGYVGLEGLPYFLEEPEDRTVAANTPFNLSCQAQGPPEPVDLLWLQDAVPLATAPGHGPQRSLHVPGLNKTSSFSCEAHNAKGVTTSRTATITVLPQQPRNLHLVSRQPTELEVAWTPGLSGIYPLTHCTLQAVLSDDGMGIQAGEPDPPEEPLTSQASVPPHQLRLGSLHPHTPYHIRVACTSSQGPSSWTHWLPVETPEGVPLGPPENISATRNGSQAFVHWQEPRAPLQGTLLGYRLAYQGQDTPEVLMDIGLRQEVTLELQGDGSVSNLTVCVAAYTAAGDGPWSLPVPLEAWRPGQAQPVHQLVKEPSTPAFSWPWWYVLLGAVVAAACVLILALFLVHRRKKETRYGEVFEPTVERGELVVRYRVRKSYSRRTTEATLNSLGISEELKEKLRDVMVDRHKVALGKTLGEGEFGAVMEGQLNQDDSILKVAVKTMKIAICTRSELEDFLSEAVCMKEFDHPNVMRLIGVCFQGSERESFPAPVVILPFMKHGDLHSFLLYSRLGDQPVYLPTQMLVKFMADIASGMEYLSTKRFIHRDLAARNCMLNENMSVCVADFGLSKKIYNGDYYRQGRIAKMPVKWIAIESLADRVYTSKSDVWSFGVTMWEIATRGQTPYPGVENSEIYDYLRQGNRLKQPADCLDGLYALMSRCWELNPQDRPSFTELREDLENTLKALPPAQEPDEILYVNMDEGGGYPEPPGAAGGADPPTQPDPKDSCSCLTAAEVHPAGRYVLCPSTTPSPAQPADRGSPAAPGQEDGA
Here is the method: as §1, §2

Chain of KDR (VEGFR2) (P35968 20-1356): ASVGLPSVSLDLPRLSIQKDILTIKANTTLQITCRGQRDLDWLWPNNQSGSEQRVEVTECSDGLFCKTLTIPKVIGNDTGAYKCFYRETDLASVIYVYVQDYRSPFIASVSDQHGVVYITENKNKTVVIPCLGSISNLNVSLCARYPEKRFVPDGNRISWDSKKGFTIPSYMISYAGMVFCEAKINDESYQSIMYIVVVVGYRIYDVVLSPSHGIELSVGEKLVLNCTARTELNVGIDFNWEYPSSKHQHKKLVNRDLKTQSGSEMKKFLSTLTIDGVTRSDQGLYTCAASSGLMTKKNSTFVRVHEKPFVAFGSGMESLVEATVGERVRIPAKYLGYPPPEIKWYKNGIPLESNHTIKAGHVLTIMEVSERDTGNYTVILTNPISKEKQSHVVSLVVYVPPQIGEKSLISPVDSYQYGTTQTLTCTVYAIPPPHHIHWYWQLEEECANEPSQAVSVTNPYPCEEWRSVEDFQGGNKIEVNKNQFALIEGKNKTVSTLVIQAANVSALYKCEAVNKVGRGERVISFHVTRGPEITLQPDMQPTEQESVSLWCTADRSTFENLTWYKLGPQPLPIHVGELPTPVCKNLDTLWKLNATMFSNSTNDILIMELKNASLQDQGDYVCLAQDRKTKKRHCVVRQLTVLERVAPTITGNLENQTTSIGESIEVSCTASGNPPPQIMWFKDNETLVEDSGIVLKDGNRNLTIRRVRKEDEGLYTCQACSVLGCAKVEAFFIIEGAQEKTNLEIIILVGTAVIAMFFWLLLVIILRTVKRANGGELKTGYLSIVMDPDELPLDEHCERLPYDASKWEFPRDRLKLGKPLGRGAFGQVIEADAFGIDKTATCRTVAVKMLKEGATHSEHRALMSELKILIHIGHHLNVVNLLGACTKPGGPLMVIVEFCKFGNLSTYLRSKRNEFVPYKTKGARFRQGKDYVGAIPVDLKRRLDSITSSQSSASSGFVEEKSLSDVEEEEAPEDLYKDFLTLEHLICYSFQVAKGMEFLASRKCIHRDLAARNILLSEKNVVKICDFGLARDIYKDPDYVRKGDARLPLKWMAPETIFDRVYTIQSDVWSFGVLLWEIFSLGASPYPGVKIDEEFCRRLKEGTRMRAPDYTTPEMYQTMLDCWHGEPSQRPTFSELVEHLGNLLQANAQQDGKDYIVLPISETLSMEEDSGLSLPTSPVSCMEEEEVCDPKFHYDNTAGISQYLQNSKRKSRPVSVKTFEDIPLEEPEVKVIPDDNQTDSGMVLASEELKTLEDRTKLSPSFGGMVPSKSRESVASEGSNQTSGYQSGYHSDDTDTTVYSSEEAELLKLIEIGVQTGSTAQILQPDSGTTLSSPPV

As usually defined, the inhibition is the drop in the measured response relative to a control, in per cent. Consider `COc1cc2nccc(Oc3ccc(NC(=O)C4(NC(=O)c5ccc(F)cc5)CC4)cc3F)c2cc1OC` [Cbo-02, N-(1-((4-((6,7-diMethoxyquinolin-4-yl)oxy)-3-fluorophenyl)carbamoyl)cyclopropyl)-4-fluorobenzamide], for which the inhibition at 1 µM at MET (cMet) worked out at 100%; on MERTK (cMER) it was 100%; on KDR (VEGFR2) it was 96%; on AXL, 91%.
Regarding `COc1cc2nccc(Oc3ccc(NC(=O)C4(NC(=O)c5ccc(F)cc5)CC4)cc3F)c2cc1Oc1ccc(N)cc1F` [Cbo-10], the inhibition at 1 µM on MET (cMet) worked out at 95%; on MERTK (cMER), 95%; on KDR (VEGFR2) it was 98%; on AXL, 98%.
For `COc1cc2nccc(Oc3ccc(NC(=O)C4(NC(=O)c5ccc(F)cc5)CC4)cc3F)c2cc1Oc1c(F)cc(N)cc1F` [Cbo-14], the inhibition at 1 µM came out at 97% on MET (cMet), 97% on MERTK (cMER), 100% at KDR (VEGFR2) and 96% on AXL.
A word on the IC50: it is the midpoint of a concentration-inhibition curve. As for `COc1cc2nccc(Oc3ccc(NC(=O)C4(C(=O)Nc5ccc(F)cc5)CC4)cc3F)c2cc1Oc1ccc(N)cc1F` [Cbo-23], the half-inhibitory concentration (IC50) on MET (cMet) came out at 35.2 nM; at MERTK (cMER), 3.72 nM; on KDR (VEGFR2), 29.2 nM; on AXL, 5.42 nM. Moreover, the inhibition at 1 µM on MET (cMet) was determined as 98%; at MERTK (cMER), 98%; at KDR (VEGFR2), 98%; on AXL it was 106%.
As to `CNC(=O)c1cc2c(Oc3ccc(NC(=O)C4(C(=O)Nc5ccc(F)cc5)CC4)cc3)ccnc2cc1OC` [Zanzalintinib, reference compound], the half-inhibitory concentration (IC50) is 4.26 nM at MET (cMet), 6.96 nM at MERTK (cMER), 2.43 nM on KDR (VEGFR2) and 1.41 nM on AXL.

The values are drawn from patent US20250120967A1, “TYROSINE KINASES INHIBITORS AND USES THEREOF” (GREAT NOVEL THERAPEUTICS BIOTECH & MEDICALS CORPORATION, priority 2023, published 2025).
